How the values were obtained:
Type in all cases: biochemical
[1] = biological target: MMP-9 (Homo sapiens, UniProt P14780); experiment: MMP inhibition fluorimetric assay (pro-fluorescing peptide substrate), MMP-9
Description: (§1) Inhibitory activities were determined by a fluorimetric assay, where a pro-fluorescing peptide was used as substrate of MMP, and the fluorogenic activity of its cleavage product was measured after co-incubation with test compounds.

[2] = biological target: T1, MMP-2 (Homo sapiens, UniProt P08253); experiment: MMP inhibition fluorimetric assay (pro-fluorescing peptide substrate), MMP-2
T1 sequence (P08253 110-660): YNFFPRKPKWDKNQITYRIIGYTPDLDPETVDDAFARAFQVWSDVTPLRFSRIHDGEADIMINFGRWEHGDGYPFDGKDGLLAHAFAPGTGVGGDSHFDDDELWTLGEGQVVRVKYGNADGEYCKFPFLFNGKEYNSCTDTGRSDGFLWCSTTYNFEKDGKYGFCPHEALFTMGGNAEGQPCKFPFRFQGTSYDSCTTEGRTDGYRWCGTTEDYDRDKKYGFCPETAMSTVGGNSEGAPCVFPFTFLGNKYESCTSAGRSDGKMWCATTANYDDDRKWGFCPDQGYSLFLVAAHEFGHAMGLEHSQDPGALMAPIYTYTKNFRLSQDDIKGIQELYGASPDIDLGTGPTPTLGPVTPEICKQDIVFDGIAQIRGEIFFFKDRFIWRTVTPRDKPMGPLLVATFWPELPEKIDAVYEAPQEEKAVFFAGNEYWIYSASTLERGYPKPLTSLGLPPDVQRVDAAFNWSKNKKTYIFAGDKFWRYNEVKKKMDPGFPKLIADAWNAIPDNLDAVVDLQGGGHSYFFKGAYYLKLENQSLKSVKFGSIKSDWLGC
Description: as §1

[3] = biological target: MMP-8 (Homo sapiens, UniProt P22894); experiment: MMP inhibition fluorimetric assay (pro-fluorescing peptide substrate), MMP-8
Chain of MMP-8 (P22894 101-467, species assumed): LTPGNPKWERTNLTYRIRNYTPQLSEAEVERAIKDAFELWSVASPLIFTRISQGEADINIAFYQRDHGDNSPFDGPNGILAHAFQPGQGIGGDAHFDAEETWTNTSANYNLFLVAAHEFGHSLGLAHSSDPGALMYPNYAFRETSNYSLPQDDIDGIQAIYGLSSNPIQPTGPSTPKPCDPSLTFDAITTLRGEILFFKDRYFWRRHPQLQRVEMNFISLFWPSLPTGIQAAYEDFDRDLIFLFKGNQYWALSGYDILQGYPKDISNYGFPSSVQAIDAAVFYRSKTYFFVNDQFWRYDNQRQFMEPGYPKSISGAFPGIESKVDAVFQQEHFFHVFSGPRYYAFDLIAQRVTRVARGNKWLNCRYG
Description: as §1

Chain of MMP-9 (P14780 94-707, species assumed): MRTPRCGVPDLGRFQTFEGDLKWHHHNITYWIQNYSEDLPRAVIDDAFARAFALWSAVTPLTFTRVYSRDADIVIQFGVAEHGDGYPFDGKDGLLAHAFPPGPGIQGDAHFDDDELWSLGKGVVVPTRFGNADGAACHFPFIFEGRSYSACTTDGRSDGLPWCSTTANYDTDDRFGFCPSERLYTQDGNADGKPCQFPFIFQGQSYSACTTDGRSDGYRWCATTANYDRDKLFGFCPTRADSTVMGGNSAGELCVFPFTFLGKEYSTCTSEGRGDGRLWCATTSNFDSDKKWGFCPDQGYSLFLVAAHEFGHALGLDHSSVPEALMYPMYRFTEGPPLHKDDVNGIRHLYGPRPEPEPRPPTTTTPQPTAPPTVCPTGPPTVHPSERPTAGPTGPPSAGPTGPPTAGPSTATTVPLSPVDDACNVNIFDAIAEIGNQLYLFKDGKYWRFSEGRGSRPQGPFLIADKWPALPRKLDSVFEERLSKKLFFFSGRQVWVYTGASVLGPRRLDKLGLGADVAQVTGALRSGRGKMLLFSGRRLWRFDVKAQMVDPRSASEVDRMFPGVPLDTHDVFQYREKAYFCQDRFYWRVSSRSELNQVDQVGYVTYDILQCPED

NC(=O)c1ccc(-c2ccc(C(=O)CC3(O)C(=O)NC(=O)NC3=O)cc2)cc1 [BAM]
IC50 [1]: 1.82 µM | IC50 [2]: 0.0871 µM | selectivity towards MMP-2, as compared to MMP-9 ([2]; MMP-2 vs MMP-9): > 20 | IC50 [3]: 0.589 µM

COc1ccc(C(=O)CC2(O)C(=O)NC(=O)NC2=O)cc1 [compound 5]
IC50 [1]: 12.9 µM | IC50 [2]: 21.4 µM | IC50 [3]: 6.76 µM

O=c1[nH]c(=O)c2cc(-c3ccc(C(F)(F)F)cc3)nnc2[nH]1 [compound 2]
inhibition at 100 µM [1]: 27% | inhibition at 100 µM [2]: 12% | inhibition at 100 µM [3]: 14%

O=C1NC(=O)C(O)(CC(=O)c2ccccc2)C(=O)N1 [compound 3]
IC50 [1]: 44.7 µM | inhibition at 100 µM [2]: 0% | IC50 [3]: 42.7 µM

O=C1NC(=O)C(O)(CC(=O)c2ccc(-c3cccc(Cl)c3)cc2)C(=O)N1 [BCL]
IC50 [1]: 20 µM | IC50 [2]: 60.3 µM | IC50 [3]: 4.47 µM

O=c1[nH]c(=O)c2cc(-c3ccccc3)nnc2[nH]1 [compound 1]
inhibition at 100 µM [1]: 5% | inhibition at 100 µM [2]: 0% | inhibition at 100 µM [3]: 0%

O=C1NC(=O)C(O)(CC(=O)c2ccc([N+](=O)[O-])cc2)C(=O)N1 [compound 6]
inhibition at 100 µM [1]: 8% | inhibition at 100 µM [2]: 0% | IC50 [3]: 631 µM

O=C1NC(=O)C(O)(CC(=O)c2ccc(C(F)(F)F)cc2)C(=O)N1 [compound 4]
inhibition at 100 µM [1]: 51% | IC50 [2]: 38.9 µM | IC50 [3]: 8.13 µM

O=C1NC(=O)C(O)(CC(=O)c2ccc(-c3ccccc3)cc2)C(=O)N1 [BAR]
IC50 [1]: 0.513 µM | IC50 [2]: 0.182 µM | IC50 [3]: 0.263 µM
